Laboratory results taken from publication PMC9558907, “Synthesis and pharmacological evaluation of newly detected synthetic cannabinoid receptor agonists AB-4CN-BUTICA, MMB-4CN-BUTINACA, MDMB-4F-BUTICA, MDMB-4F-BUTINACA and their analogs” (Frontiers in Psychiatry, 2022).

Columns and labels:
CB2 = system: CB2; set-up: method as in PMID 26134475; conditions: cited from earlier work
CB1 = system: CB1; set-up: method as in PMID 26134475; conditions: cited from earlier work
human CB2 [1] = biological target: T1, human CB2 (Homo sapiens, UniProt P34972); experiment: fluorescence-based membrane potential assay (GIRK activation) in AtT20 cells; assay type: cell-based; set-up: expressed in transfected cells; host or cells: mouse AtT20 FlpIn cells; conditions: for hCB2 Emax ±SEM: AtT20-hCB2, normalised to 1 μM CP55,940; for EC50: hCB2 EC50, AtT20-hCB2, value in brackets after pEC50
human CB1 [2] = biological target: T2, human CB1 (Homo sapiens, UniProt P21554); experiment: competitive radioligand binding assay, displacement of [3H]CP55,940, HEK cell membranes; set-up: expressed in transfected cells; host or cells: HEK293 cells, P2 membrane preparation; conditions: hCB1 Ki, [3H]CP55,940 1 nM, value in brackets after pKi
human CB1 [3] = biological target: T2, human CB1; experiment: fluorescence-based membrane potential assay (GIRK activation) in AtT20 cells; assay type: cell-based; set-up: expressed in transfected cells; host or cells: mouse AtT20 FlpIn cells; conditions: for hCB1 Emax ±SEM: AtT20-hCB1, normalised to 1 μM CP55,940; for EC50: hCB1 EC50, AtT20-hCB1, value in brackets after pEC50
human CB2 [4] = biological target: T1, human CB2; experiment: competitive radioligand binding assay, displacement of [3H]CP55,940, HEK cell membranes; set-up: expressed in transfected cells; host or cells: HEK293 cells, P2 membrane preparation; conditions: hCB2 Ki, [3H]CP55,940 1 nM, value in brackets after pKi

T2 sequence (P21554 whole entry): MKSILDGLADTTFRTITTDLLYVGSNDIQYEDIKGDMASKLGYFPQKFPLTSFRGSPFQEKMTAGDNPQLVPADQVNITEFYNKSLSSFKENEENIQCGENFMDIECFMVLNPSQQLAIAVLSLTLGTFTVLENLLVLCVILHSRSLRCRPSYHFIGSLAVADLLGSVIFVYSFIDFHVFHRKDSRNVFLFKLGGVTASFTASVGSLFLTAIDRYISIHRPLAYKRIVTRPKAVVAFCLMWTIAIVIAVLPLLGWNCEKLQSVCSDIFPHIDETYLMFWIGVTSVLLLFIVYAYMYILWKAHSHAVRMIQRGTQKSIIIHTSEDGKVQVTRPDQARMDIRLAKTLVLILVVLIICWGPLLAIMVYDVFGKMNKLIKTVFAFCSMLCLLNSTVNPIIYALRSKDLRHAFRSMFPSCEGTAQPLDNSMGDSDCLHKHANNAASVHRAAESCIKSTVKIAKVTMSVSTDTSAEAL
T1 sequence (P34972 whole entry): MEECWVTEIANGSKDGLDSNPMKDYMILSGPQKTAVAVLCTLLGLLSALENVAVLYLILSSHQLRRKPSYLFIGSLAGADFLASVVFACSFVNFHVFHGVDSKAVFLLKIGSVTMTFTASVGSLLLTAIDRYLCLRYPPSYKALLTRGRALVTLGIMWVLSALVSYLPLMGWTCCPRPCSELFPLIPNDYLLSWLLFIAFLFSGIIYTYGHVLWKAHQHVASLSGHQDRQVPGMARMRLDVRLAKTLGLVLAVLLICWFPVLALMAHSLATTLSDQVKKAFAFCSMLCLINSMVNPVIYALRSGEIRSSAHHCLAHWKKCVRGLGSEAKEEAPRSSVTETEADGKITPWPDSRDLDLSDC

Structure (SMILES)	effect at 30 μM at CB2 (CB2) [%]	Emax at CB1 (CB1) [%]	pEC50 at CB1 (CB1)	hCB2 Emax ±SEM (human CB2 [1])	EC50 (human CB2 [1]) [nM]	melting point [°C]	Ki (human CB1 [2]) [nM]	hCB1 Emax ±SEM (human CB1 [3])	EC50 (human CB1 [3]) [nM]	Ki (human CB2 [4]) [nM]
CCCCCc1cc(O)c2c(c1)OC(C)(C)[C@@H]1CCC(C)=C[C@@H]21 [THC, Δ^9-tetrahydrocannabinol]	32	58	6.76 ± 0.09							
NC(=O)[C@H](Cc1ccccc1)NC(=O)c1nn(CCCCF)c2ccccc12 [Compound 30, (S)-N-(1-amino-1-oxo-3-phenylpropan-2-yl)-1-(4-fluorobutyl)-1H-indazole-3-carboxamide]				101 ± 12 % CP55,940	8.35	100 to 103	1380	103 ± 3 % CP55,940	504	28.2
CC(C)(C)[C@H](NC(=O)c1cn(CCCCC#N)c2ncccc12)C(N)=O [Compound 15, (S)-N-(1-amino-3,3-dimethyl-1-oxobutan-2-yl)-1-(4-cyanobutyl)-1H-pyrrolo[2,3-b]pyridine-3-carboxamide]				96 ± 1 % CP55,940	6.09	93 to 94	155	102 ± 4 % CP55,940	14	145
